Assay results published in PMC9704104, “Towards safer anti-inflammatory therapy: synthesis of new thymol–pyrazole hybrids as dual COX-2/5-LOX inhibitors” (Journal of Enzyme Inhibition and Medicinal Chemistry, 2022).
Where “and” joins values, the source holds several entries; their conditions need not be identical. Equal entries are not always repeated. Where two headings read alike, the source gives them in different places. Marks after values point to notes of the source that are not given here.

What was measured:
5-LOX = test: In vitro 5-LOX inhibitory assay (Abnova 5-LOX inhibitor screening assay kit); assay type: biochemical
Text: The newly synthesised compounds were screened for their ability to inhibit 5-LOX enzymes. […] (Page: S21, Supplementary file). […]
In vitro LOX inhibitory assay
Inhibitor Screening Assay Kit detects and measures the hydroperoxides produced in the lipoxygenation reaction using a purified LOX. The detection reaction is equally sensitive to hydroperoxides at various positions within the fatty acid and will work with fatty acids of any carbon length. It is thus a general detection method for 5-LOX and can be used to screen libraries of compounds for those which inhibit 5 -LOX enzymes.
1) Blank Wells- add 100 µL of assay buffer to at least two wells.
2) Positive Control Wells- Lipoxygenase (15-LO standard) add 90 µL 15-LO and 10 µL of assay buffer […]
3) 100% Initial Activity Wells- add 90 µL 15-LO and 10 µL of solvent (DMSO) (the same solvent to dissolve the inhibitor) to two wells. The 100% initial activity wells should result in approximately 10 […]
4) Inhibitor Wells- add 90 µL of sample and I10 µL of inhibitor to two wells.
5) Initiate the reaction by adding 10 µL of substrate (either arachidonic acid or linoleic acid) to all the wells. Place the 96-well plate on a shaker for at least five minutes.
6) Add 100 µL of chromogen to each well to stop enzyme catalysis and develop the reaction. Cover with a plate cover and place the 96-well plate on a shaker for at least five minutes.
7) Remove the cover and read the absorbance at 490-500 nm using a plate reader.
Inhibitors were dissolved in DMSO. The inhibitors were added to the assay in a final volume of 10 µL before initiating with substrate. Three concentrations were prepared (25, 50 and 100 µM) to determine the concentration produced 50% enzyme inhibition.
2) The absorbance of blank wells was subtracted from absorbance of the 100% Initial activity and the […]

gastric mucosa = test: In vivo gastric ulcerogenic activity (gross examination of gastric mucosa); conditions: fasted rats, 60 mg/kg orally, six hours after treatment
[1] = system: formalin-induced rat paw oedema; test: Formalin-induced paw oedema test (acute inflammation model); assay type: in vivo; conditions: for % inhibition of paw oedema compared with reference drugs (in words) / inhibition in vivo at 5 mg/kg / % Inhibition of oedema volume, Mean ± SD / Volume of oedema (ml) 4h, Mean ± SD: 4 h; for % inhibition of paw oedema compared with reference drugs (in words): comparison with celecoxib or diclofenac sodium; for inhibition in vivo at 5 mg/kg: Rattus norvegicus; for inhibition in vivo at 5 mg/kg / Volume of oedema (ml) 4h, Mean ± SD: po; for % Relative potency (4h) celecoxib / % Relative potency (4h) celecoxib, Mean ± SD: relative to % inhibition of celecoxib at 4 h; for % Relative potency (4h) diclofenac, Mean ± SD / % Relative potency (4h) diclofenac: relative to % inhibition of diclofenac at 4 h
Procedure: Animals Adult female albino rats weighing 150-250 g were used (Experimental Animal Centre in Alexandria University). All animals accessed to food and water ad libitum and were housed in 12 h dark/light cycle in a controlled condition at 23-250C. They were allowed to acclimatize for 1 week prior to experimentation. Procedures involving animals and their care were conducted in conformity with the Guide for the Care and Use of Laboratory Animals published by US National Institute of Health4 (NIH publication No. 83-23, revised) and following the ethical guidelines of Alexandria University on laboratory animals. In all tests, adequate considerations were adopted to reduce pain or discomfort of animals (Approved by AlexU-IACUC) 3. […]
Formalin-induced paw edema test (acute inflammation model):
A solution of freshly prepared formalin 5% was used as a phlogistic agent. A mark was made on the lateral malleolus of the rats’ paws delineating the injection sites. The initial volume of paw was measured by means of digital calibrated Vernier caliper .
After 45 minutes, 40 μl formalin were injected subcutaneously into the sub plantar tissue of the right hind paw of all groups under light ether anesthesia . An equal volume of saline was injected into the left hind paw and served as internal control for the degree of inflammation in the right hind paw. 5, 6 The volume of paw was measured in different treatment groups, 4 h following the formalin injection and the amount of increase in paw volume (edema volume) was calculated by subtracting the volumes before and 4 h after the injection of formalin. Edema was expressed as an increase in the volume of paw, and the percentage of edema inhibition (or percent protection against inflammation) for each rat and each group was calculated according to the following equation: […]
Where Vt is the mean volume of edema at specific time interval (4 h) and Vo is the mean volume of edema […]
Relative potency of the tested compounds was expressed as % inhibition of edema for the tested compounds

COX-1 = target: T1, COX-1 (Ovis aries, UniProt P05979); test: In vitro COX-1 inhibitory assay (Cayman colorimetric COX (ovine) inhibitor screening assay kit); assay type: biochemical; conditions: mean of three replicates ± SD
T1 construct: purchased Cayman chemicals 560131
T1 sequence (P05979 25-600): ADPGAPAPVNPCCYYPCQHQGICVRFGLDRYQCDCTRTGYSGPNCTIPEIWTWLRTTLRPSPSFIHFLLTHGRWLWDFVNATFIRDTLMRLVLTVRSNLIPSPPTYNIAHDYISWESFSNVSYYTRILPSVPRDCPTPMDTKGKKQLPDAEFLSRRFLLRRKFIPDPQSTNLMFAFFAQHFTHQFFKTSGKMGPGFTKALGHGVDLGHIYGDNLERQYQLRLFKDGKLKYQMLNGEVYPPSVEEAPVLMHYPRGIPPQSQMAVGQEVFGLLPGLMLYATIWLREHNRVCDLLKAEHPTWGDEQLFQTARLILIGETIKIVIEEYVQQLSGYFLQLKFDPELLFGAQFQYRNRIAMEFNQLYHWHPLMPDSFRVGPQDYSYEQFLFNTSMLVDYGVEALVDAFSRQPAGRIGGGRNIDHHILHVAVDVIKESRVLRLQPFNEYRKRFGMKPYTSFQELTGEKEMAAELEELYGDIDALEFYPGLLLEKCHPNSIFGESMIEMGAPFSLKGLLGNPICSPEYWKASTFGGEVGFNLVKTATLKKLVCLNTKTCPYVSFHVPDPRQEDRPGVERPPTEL
Procedure: (Page: S20, Supplementary file).
Anti-inflammatory activity
In vitro COX-1 and COX-2 inhibitory assay […]
supplied by Cayman chemicals, Ann Arbor, MI, USA according to reported method 1. The colorimetric COX inhibitor screening assay utilizes the peroxidase component of cyclooxygenase. The peroxidase activity was assayed calorimetrically by monitoring the appearance of oxidized N,N,N',N'-tetramethyl-1,4-phenylenediamine (TMPD) at 590nm. The appearance of reagent was carried out following the instructions […]
The half- maximal inhibitor concentrations (IC50µM) were determined and the selectivity index (SI) values were calculated as IC50 (COX-1)/IC50 (COX-2).
1) Background wells- 160 µL of assay buffer and 10 µL of heme were added to background wells.
2) The 100% Initial activity wells- 150 µL of assay buffer, 10 µL of heme and 10 µL of enzyme (COX-1 or COX-2) were added.
3) Inhibitor well- 150 µL of assay buffer, 10 µL of heme and 10 µL of enzyme were added.
4) 10 µL of inhibitor (3 concentrations) in DMSO was added to the inhibitor wells to yield a final […]
5) 10 µL of solvent (DMSO) was added to the 100% Initial activity wells and background wells.
7) 20 µL of colorimetric substrate solution (TMPD) was added to all wells.
8) 20 µL of arachidonic acid was added to all wells to yield a final concentration of 100 µM.
10) The absorbance was measured at 590 nm using a plate reader.
The calculations were carried out in the following manner:
1) The average absorbance of all samples was determined.
2) The absorbance of background wells was subtracted from absorbance of the 100% Initial activity […]
3) Percent inhibition = (100% Initial activity – Inhibitor wells/ 100% Initial activity)∗ 100 […]
Place the 96-well plate on a shaker for at least five minutes. […]

[2] = group mean ± SD, 5 mg/kg orally, read-out: % Inhibition of oedema volume, Mean ± SD
[3] = individual rats 1-3, 5 mg/kg orally, read-out: % Inhibition of oedema volume
[4] = group mean ± SD, 5 mg/kg orally
[5] = 4 h minus 0, group mean ± SD, 5 mg/kg orally
[6] = read-out: % Inhibition of oedema volume, 4 h, individual rats 1-3, 5 mg/kg orally
[7] = read-out: % Inhibition of oedema volume, Mean ± SD, 4 h, group mean ± SD, 5 mg/kg orally

Row | Compound | IC50 (5-LOX) | Gross appearance of gastric mucosa (ulcerogenic potential) (gastric mucosa; 60 mg/kg) | % inhibition of paw oedema compared with reference drugs (in words) ([1]; 5 mg/kg orally) | inhibition in vivo at 5 mg/kg [1, 2] | inhibition in vivo at 5 mg/kg [1, 3] | % Relative potency (4h) celecoxib ([1]; individual rats 1-3) | % Relative potency (4h) diclofenac, Mean ± SD ([1]; group mean ± SD) | % Relative potency (4h) diclofenac ([1]; individual rats 1-3) | IC50 (COX-1) | Gross appearance of gastric mucosa (ulcerogenic potential) (gastric mucosa) | % Inhibition of oedema volume, Mean ± SD [1, 4] | Abs diff., Mean ± SD [1, 5] | inhibition in vivo at 5 mg/kg [1, 6] | inhibition in vivo at 5 mg/kg [1, 7] | Volume of oedema (ml) 4h, Mean ± SD ([1]; 5 mg/kg) | % Relative potency (4h) celecoxib, Mean ± SD ([1]; group mean ± SD) | Abs diff. ([1]; 4 h minus 0, individual rats 1-3, 5 mg/kg orally, 5 mg/kg) | Volume of oedema (ml) 0 ([1]; time 0, individual rats 1-3, 5 mg/kg orally, 5 mg/kg)
1 | Cc1ccc(C(C)C)c(O)c1C=NNC(=O)c1cc(-c2ccccc2)n[nH]1 [Compound 4a, N'-(2-Hydroxy-3-isopropyl-6-methylbenzylidene)-3-phenyl-1H-pyrazole-5-carbohydrazide] | 3.05 ± 0.067 µM | No gross ulceration | double % inhibition exhibited by Celecoxib | 81.9% | 84.2% | 239.70% and 192.90% and 244.0% | 156.4 ± 20.52% | 178.10% and 137.30% and 153.80% | 10.3 ± 0.1 µM |  |  |  |  |  |  |  |  | 
2 | O=C(O)Cc1ccccc1Nc1c(Cl)cccc1Cl [Diclofenac sodium, reference compound] |  |  |  |  |  |  |  |  |  | no ulceration | 52.53^b ± 4.59% | 1.03^ab ± 0.12 | 47.3% | 52.4% | 5.30^ab ± 0.09 ml |  |  | 
3 | Cc1ccc(-c2cc(C(F)(F)F)nn2-c2ccc(S(N)(=O)=O)cc2)cc1 [Celecoxib, reference compound] |  |  |  |  |  |  |  |  |  | no ulceration | 36.33 ± 2.05% | 1.38^a ± 0.06 | 35.2% | 36.4% | 5.69^a ± 0.02 ml |  |  | 
4 | Cc1ccc(C(C)C)c(O)c1C=NNC(=O)c1cc(-c2ccccc2)n(-c2ccc(Cl)cc2)n1 [Compound 8g, 1-(4-Chlorophenyl)-N'-(2-hydroxy-3-isopropyl-6-methylbenzylidene)-5-phenyl-1H-pyrazole-3-carbohydrazide] | 1.6 ± 0.042 µM | No gross ulceration |  |  | 52.7% | 150.0% and 145.20% and 150.70% | 103.3 ± 8.20% | 111.40% and 103.40% and 95.0% | 12.1 ± 0.16 µM |  |  |  |  |  |  | 148.6 ± 2.99% |  | 
5 | COc1ccc(-c2cc(C(=O)NN=Cc3c(C)ccc(C(C)C)c3O)nn2-c2ccccc2)cc1 [Compound 8f, 5-(4-Methoxyphenyl)-N'-(2-hydroxy-3-isopropyl-6-methylbenzylidene)-1-phenyl-1H-pyrazole-3-carbohydrazide] | 2.91 ± 0.064 µM |  | slightly less % inhibition than that of Diclofenac sodium | 46.3 ± 3.67% | 50.5% | 143.60% and 115.50% and 124.0% | 89.03 ± 15.43% | 106.70% and 82.20% and 78.20% | 11.2 ± 0.57 µM |  |  |  |  |  |  | 127.7 ± 14.41% | 1.20 | 5.15 mL
6 | Cc1ccc(C(C)C)c(O)c1C=NNC(=O)c1cc(-c2ccc(Br)cc2)n(-c2ccccc2)n1 [Compound 8e, 5-(4-Bromophenyl)-N'-(2-hydroxy-3-isopropyl-6-methylbenzylidene)-1-phenyl-1H-pyrazole-3-carbohydrazide] | 2.56 ± 0.025 µM |  |  |  | 59.5% | 169.20% and 127.40% and 150.70% | 103.8 ± 19.09% | 125.70% and 90.70% and 95.0% | 11.24 ± 0.075 µM |  |  |  |  |  |  | 149.1 ± 20.95% |  | 
